In US7169785B2, “Methods and compositions of novel triazine compounds” (Reddy US Therapeutics, Inc., priority 2001, dated 2007):
Entries after “also recorded” stand apart in the source; their conditions may differ.

Tests used:
[1] = tested on: Human aortic smooth muscle cells; test: Smooth muscle cell proliferation assay (anti-proliferation assay, perlecan); assay type: cell-based; details: for IC50: Homo sapiens, read-out: Proliferation Data, average IC50
Protocol: Human aortic smooth muscle cells (Clonetics) were used. Cells were grown in basal medium containing 5% fetal bovine serum supplemented with growth factors, basic fibroblast growth factor, epidermal growth factor and insulin. […] The cells were then serum starved for 24 h to induce quiescence. Fresh growth medium containing no compound or 10 μM compound was then added and further incubated for 24 h. Cell number was determined by using a cell proliferation assay kit (Celltiter96 AQueous from Promega).

cells = test: Cytotoxicity / lactate dehydrogenase assay and visual observation of cells; assay type: cell-based
Protocol: Assays for determining the activity of compounds capable of cytotoxic activity include those taught in herein and others that are well known in the art. In general, to determine if there is cytotoxic activity associated with a compound, cells of a particular type, in a growing stage or a quiescient stage, are treated with the compound of interest. Various parameters of cell death or cessation are used to measure the effects of the compound. For example, the amount of nucleic acid or protein synthesis can be measured or visual observation of the state of the cells, such as release from the substrate, can be used to measure the state of the cells.
An appropriate number of cells are plated in four 96-well plates, one plate for “day 0” and three plates for days 1–3. Cells are treated with at least one compound of the present invention in varying concentrations with and without the apoptosis inducer cisplatin (2 μM) (“+cis” or “−cis”). Unteated cells are also assayed with and without cisplatin. After transfection, the plates are incubated at 37° C. overnight.
An appropriate number of cells are plated in four 96-well plates, one plate for “day 0” and three plates for days 1–3. Cells are treated with at least one compound of the present invention in varying concentrations. The negative control cells have normal media conditions, a duplicate set of wells is treated with the composition in which the compound is provided, but there is no added compound and the positive control cells are treated with the apoptosis inducer cisplatin (2 μM). All of the cells are transfected with a vector having a promoter that is responsive to apoptosis conditions. When apoptosis occurs, the promoter is turned on and the lactic dehydrogenase gene is activated and the enzyme protein is made and active. Activity is easily detected with a color change. After transfection, the plates are incubated at 37° C. overnight.
About 8 mls of warmed alpha MEM LDH lysis buffer (2% Triton X100) and about 8 mls of culture media (½ dilution) are combined. Two 96-well v-bottom plates are prepared, one labeled “lysis” and one labeled “supernatant.” To lyse the cells, about 200 μl Alpha MEM lysis buffer (diluted ½) is added to one test plate from which the supernatant has been removed and added to the plate labeled supernatant. After mixing, about 200 μl of lysed cells are transferred to the lysis plate. Both the lysis and supernatant plates are centrifuged at about 1600 rpm for about 10 min. After centrifugation, about 100 μl of both the supernatant or lysate is transferred to corresponding 96-well flat-bottomed plates.
The assay for cytotoxicity uses the Cytotoxicity Detection Kit (LDH) from Roche Diagnostics Corp. (Indianapolis, Ind.). Using the directionts provided, the dye solution is mixed and added each well of the lysate and supernatant plate and incubated for up to 20–25 min at 15–25° C. in the dark.

IL6 = test: Inflammation Data of Table 8: IL6 production compared to cells that did not receive compound (stimulus AGE or TNF not given); assay type: cell-based
Excerpt: Additional bioactivity data for compounds of the present invention are presented in Table 8, where compounds that have at least the activity of effecting cellular proliferation or at least the activity of modulating inflammation activity, as measured by the assays taught herein, are provided. […] The inclusion of compounds in the categories of the Tables disclosed herein, including this Table, is not to be seen as limiting, in that compounds included in such Tables have at least the activity shown for inclusion in the Table and may have more or other activities. Nor are the Tables to be seen as limiting in that these are the only compounds disclosed herein that have that activity, representative compounds are shown in the Tables that have at least that particular activity for inclusion in the Table. One or more compounds disclosed herein have at least an activity that has utility in treatment of disease states. Note that any hydrogen atoms that are required for any atom to attain its usual valence in a structure presented in Table 8, whether a carbon atom or a heteroatom, should be inferred if it is not specifically indicated.

[2] = observed in the proliferation assay

Structure (SMILES): COc1ccc(Nc2nc(NN3CCCCCC3)nc(N(C)C3CCNCC3)n2)cc1Cl
- melting point: 81 °C

Structure (SMILES): COc1ccc(Nc2nc(NC3CCCCCC3)nc(N3CCCC3CO)n2)cc1Cl (centres unmarked)
- Proliferation Data (result in words) ([1]; 5 & 10 uM screens): Did not pass
- cell morphology change / cell death observed under Proliferation Data (words with concentration) (cells; [2]): rounding
- Inflammation Data (result in words) (IL6; concentration not given): Not Active

Structure (SMILES): COc1ccc(Nc2nc(NC3CCCCCC3)nc(N3CCN(C)CC3)n2)cc1Cl
- Proliferation Data (result in words) ([1]; 5 & 10 uM screens): Did not pass
- cell death under Inflammation Data (cells; at 5 uM): 25%
- cell death under Inflammation Data (cells; at 10 uM): total cell death
- cell morphology change / cell death observed under Proliferation Data (words with concentration) (cells; [2]): blunting androunding
- inhibition at 10 µM (IL6; at 10 uM): 75%

Structure (SMILES): CCc1occc(=O)c1Oc1nc(Nc2ccc(OC)c(Cl)c2)nc(NC2CCCCCC2)n1
- Proliferation Data (result in words) ([1]; 5 & 10 uM screens): Not active at 5 & 10 uM
- cell death under Inflammation Data (cells; at 10 uM): 20%
- inhibition at 10 µM (IL6; at 10 uM): 48%

Structure (SMILES): COc1ccc(Nc2nc(NC3CCCCCC3)nc(OC3CCCNC3)n2)cc1Cl (centres unmarked)
- IC50 [1]: 4.9 µM
- cell death under Inflammation Data (cells; at 10 uM): 20%
- inhibition at 10 µM (IL6; at 10 uM): 60%

Structure (SMILES): COc1ccc(Nc2nc(NC3CCCCCC3)nc(OC3CCNCC3)n2)cc1Cl
- IC50 [1]: 1.85 µM
- cell death under Inflammation Data (cells; at 10 uM): 20%
- inhibition at 10 µM (IL6; at 10 uM): 85%

Structure (SMILES): COc1ccc(Nc2nc(NC3CCCCCC3)nc(OCC3CCCN3C)n2)cc1Cl (centres unmarked)
- IC50 [1]: 5.25 µM
- cell death under Inflammation Data (cells; at 10 uM): total cell death
- Inflammation Data, inhibition (IL6; at 10 uM): complete inhibition

Structure (SMILES): COc1ccc(Nc2nc(NC3CCCCCC3)nc(OC3CCN(C)CC3)n2)cc1Cl
- cell death under Inflammation Data (cells; at 10 uM): total cell death
- cell morphology change / cell death observed under Proliferation Data (words with concentration) (cells; [2]): rounding at 5 & 10 uM
- inhibition at 10 µM (IL6; at 10 uM): 95%

Structure (SMILES): CN1CCC(N(C)c2nc(Nc3ccc(OCc4ccccc4)c(Cl)c3)nc(NC3CCCCCC3)n2)CC1
- cell death under Inflammation Data (cells; 5 uM): 30%
- cell death under Inflammation Data (cells; 10 uM): totaldeath
- Inflammation Data (result in words) (IL6; at 1 uM): Not active

Structure (SMILES): CN(c1nc(Nc2ccc(OCc3ccccc3)c(Cl)c2)nc(NC2CCCCCC2)n1)C1CCNCC1
- cell death under Inflammation Data (cells; 5 uM): 50%
- cell death under Inflammation Data (cells; 10 uM): total cell death
- Inflammation Data (result in words) (IL6; at 1 uM): not active
- inhibition at 5 µM (IL6; at 5 uM): 58%

Structure (SMILES): CN(c1nc(Nc2ccc(O)cc2)nc(NC2CCCCCC2)n1)C1CCNCC1
- cell death under Inflammation Data (cells; 5 uM): 20%
- cell death under Inflammation Data (cells; 10 uM): total cell death
- inhibition at 5 µM (IL6; at 5 uM): 50%

Structure (SMILES): COc1ccc(Nc2nc(NC3CCCCCC3)nc(NC3CCN(Cc4ccccc4)CC3)n2)cc1F
- cell death under Inflammation Data (cells; at 5 uM): 25%
- cell death under Inflammation Data (cells; at 10 uM): total cell death
- cell morphology change / cell death observed under Proliferation Data (words with concentration) (cells; [2]): cell bluntingat 3 uM; also recorded: rounding at 5uM
- inhibition at 5 µM (IL6; at 5 uM): 43%
- inhibition at 10 µM (IL6; at 10 uM): 97%

Structure (SMILES): COc1ccc(Nc2nc(NC3CCCCCC3)nc(NC3CCNCC3)n2)cc1
- cell death under Inflammation Data (cells; at 5 uM): 20%
- cell death under Inflammation Data (cells; at 10 uM): > 50%
- inhibition at 5 µM (IL6; at 5 uM): 69%
- inhibition at 10 µM (IL6; at 10 uM): 88%

Structure (SMILES): COc1ccc(Nc2nc(Cl)nc(Nc3ccc(OC)c(F)c3)n2)cc1F
- Proliferation Data (result in words) ([1]; concentration not given): Not active
- Inflammation Data, inhibition (IL6; at 5 uM): noeffect
- inhibition at 10 µM (IL6; at 10 uM): 20%

Structure (SMILES): COc1ccc(Nc2nc(NC3CCCCCC3)nc(N3CCSCC3)n2)cc1Cl
- melting point: 78 to 80 °C

Structure (SMILES): COc1ccc(Nc2nc(Cl)nc(OCC3CCCCC3)n2)cc1F [Compound 114, (4-Chloro-6-cyclohexylmethoxy-[1,3,5]triazin-2-yl)-(3-fluoro-4-methoxy-phenyl)-amine]
- melting point: 98 °C

Structure (SMILES): COc1ccc(Nc2nc(Nc3ccc(OC)c(F)c3)nc(OCC3CCCCC3)n2)cc1F [Compound 115, 6-Cyclohexylmethoxy-N,N′-bis-(3-fluoro-4-methoxy-phenyl)-1,3,5-triazine-2,4-diamine]
- melting point: 181 °C

Structure (SMILES): CCN1CCCC1CNc1nc(Nc2ccc(OC)c(F)c2)nc(OCC2CCCCC2)n1 (centres unmarked) [Compound 116, 6-Cyclohexylmethoxy-N-(1-ethyl-pyrrolidin-2-ylmethyl)-N′-(3-fluoro-4-methoxy-phenyl)-[1,3,5]triazine-2,4-diamine]
- melting point: 59 °C

Structure (SMILES): COc1ccc(Nc2nc(Cl)nc(OCC3CCCCC3)n2)cc1Cl [Compound 117, (4-Chloro-6-cyclohexylmethoxy-[1,3,5]triazin-2-yl)-(3-chloro-4-methoxy-phenyl)-amine]
- melting point: 114 °C

Structure (SMILES): COc1ccc(Nc2nc(Nc3ccc(OC)c(Cl)c3)nc(OCC3CCCCC3)n2)cc1Cl [Compound 118, N,N′-Bis-(3-chloro-4-methoxy-phenyl)-6-cyclohexylmethoxy-1,3,5-triazine-2,4-diamine]
- melting point: 188 °C

Structure (SMILES): COc1ccc(Nc2nc(Nc3ccc(OC)c(Cl)c3)nc(NC3CCCCCC3)n2)cc1Cl [Compound 122, N,N′-Bis-(3-chloro-4-methoxy-phenyl)-N″-cycloheptyl-[1,3,5]triazine-2,4,6-triamine]
- melting point: 183 °C

Structure (SMILES): COc1ccc(Nc2nc(Cl)nc(Cl)n2)cc1F [Compound 124, (4,6-Dichloro-[1,3,5]triazin-2-yl)-(3-fluoro-4-methoxy-phenyl)-amine]
- melting point: 134 °C

Structure (SMILES): CCN1CCCC1CNc1nc(NCC2CCCCC2)nc(Nc2ccc(OC)c(F)c2)n1 (centres unmarked) [Compound 126, N-Cyclohexylmethyl-N′-(1-ethyl-pyrrolidin-2-ylmethyl)-N″-(3-fluoro-4-methoxy-phenyl)-[1,3,5]triazine-2,4,6-triamine]
- melting point: 72 °C

Structure (SMILES): COc1ccc(Nc2nc(O)nc(NC3CCCCCC3)n2)cc1Cl [Compound 147, 4-(3-Chloro-4-methoxy-phenylamino)-6-cycloheptylamino-1,3,5-triazin-2-ol]
- melting point: > 310 °C

Structure (SMILES): COc1ccc(Nc2nc(NC3CCCCCC3)nc(OC3CCCN(C(C)=O)C3)n2)cc1Cl (centres unmarked) [Compound E20, 1-[3-{4-(3-chloro-4-methoxyanilino)-6-cycloheptylamino-1,3,5-triazine-2-yloxy}piperidino]-1-ethanone]
- melting point: 138 to 140 °C

Structure (SMILES): COc1ccc(Nc2nc(NC3CCCCCC3)nc(OC(C)C)n2)cc1Cl [Compound E21, N^2-(3-chloro-4-methoxyphenyl)-N^4-cycloheptyl-6-isopropoxy-1,3,5-triazine-2,4-diamine]
- melting point: 136 to 138 °C

Structure (SMILES): COc1ccc(Nc2nc(NC3CCCCCC3)nc(OC3CCCN(C(C)=O)C3)n2)cc1Cl (centres unmarked) [drawing 992]
- Proliferation Data (result in words) ([1]; 5 & 10 uM screens): Not active at 5 & 10 uM
- Inflammation Data, inhibition (IL6; at 10 uM): complete inhibition at 10 uM

Structure (SMILES): COc1ccc(Nc2nc(NC3CCCCCC3)nc(OC(C)C)n2)cc1Cl [drawing 993]
- Proliferation Data (result in words) ([1]; concentration not given): Not active
- inhibition at 10 µM (IL6; at 10 uM): < 25%

Structure (SMILES): COc1ccc(Nc2nc(NC3CCCCCC3)nc(OCC3CCCN3)n2)cc1Cl (centres unmarked) [drawing 994]
- Proliferation Data (result in words) ([1]; 5 & 10 uM screens): Not active at 5 & 10 uM
- inhibition at 10 µM (IL6; at 10 uM): 75%

Structure (SMILES): COc1ccc(Nc2nc(NC3CCCCCC3)nc(N3CCSCC3)n2)cc1Cl [drawing 999]
- Proliferation Data (result in words) ([1]; concentration not given): Not active
- Inflammation Data (result in words) (IL6; concentration not given): Not Active

Structure (SMILES): COc1ccc(Nc2nc(NC3CCCCCC3)nc(Oc3ccccc3F)n2)cc1Cl [drawing 1000]
- Proliferation Data (result in words) ([1]; concentration not given): Not active
- Inflammation Data (result in words) (IL6; concentration not given): Not Active

Structure (SMILES): CN1CCC(N(C)c2nc(Nc3ccc(O)c(Cl)c3)nc(NC3CCCCCC3)n2)CC1 [drawing 1008]
- cell death under Inflammation Data (cells; 10 uM): total cell death
- cell morphology change / cell death observed under Proliferation Data (words with concentration) (cells; human, 24 h): cell bluntingat 3 to 10 uM
- inhibition at 5 µM (IL6; at 5 uM): 64%
- inhibition at 10 µM (IL6; at 10 uM): 84%

Structure (SMILES): COc1ccc(Nc2nc(NC3CCCCCC3)nc(NC3CCN(Cc4ccccc4)CC3)n2)cc1Cl [drawing 1010]
- cell death under Inflammation Data (cells; at 5 uM): 20%
- cell death under Inflammation Data (cells; at 10 uM): > 50%
- cell morphology change / cell death observed under Proliferation Data (words with concentration) (cells; [2]): cell blunting at 1 uM; also recorded: rounding at 5 uM
- inhibition at 5 µM (IL6; at 5 uM): 37%
- inhibition at 10 µM (IL6; at 10 uM): 41%
